How the values were obtained:
Format in all cases: in vivo
[1] = tested on: early watergrass (Echinochloa oryzicola Vasing); assay: Test Example 1: herbicidal effect by soil application to paddy field; settings: paddy field soil application; active ingredient 1,000 g per 1 hectare; wettable powder added dropwise to water surface the day after sowing; examined on the 21st day after application
In short: (§1)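 Plants were sown in flooded (3 cm) paddy soil and evaluated for herbicidal effect 21 days after soil application in a greenhouse.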

[2] = tested on: heartshape false pickerelweed (Monochoria vaginalis (Burm.f.) C.Presl); assay: as above; settings: paddy field soil application; active ingredient 1,000 g per 1 hectare; wettable powder added dropwise to water surface the day after sowing; examined on the 21st day after application
In short: as §1

[3] = tested on: Japanese bulrush (Scirpus juncoides Roxb.); assay: as above; settings: paddy field soil application; active ingredient 1,000 g per 1 hectare; wettable powder added dropwise to water surface the day after sowing; examined on the 21st day after application
In short: as §1

[4] = tested on: velvetleaf (Abutilon theophrasti medicus); assay: Test Example 2: herbicidal effect by soil application to upland field; settings: soil surface spray, upland field soil, 1,000 g active ingredient per hectare, 21st day after application
In short: (§2)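 Pots of field soil, seeds sown and soil-covered; wettable powder diluted in water sprayed on soil at 1,000 g a.i./ha (1,000 L/ha). Greenhouse-grown; herbicidal effect rated per standard at 21 days post-application.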

[5] = tested on: slender amaranth (Amaranthus viridis L.); assay: as above; settings: soil surface spray, upland field soil, 1,000 g active ingredient per hectare, 21st day after application
In short: as §2

[6] = tested on: green foxtail (Setaria viridis (L.) P. Beauv.); assay: as above; settings: soil surface spray, upland field soil, 1,000 g active ingredient per hectare, 21st day after application
In short: as §2

[7] = tested on: barnyardgrass (Echinochloa crus-galli (L.) P. Beauv. var. crus-galli); assay: as above; settings: soil surface spray, upland field soil, 1,000 g active ingredient per hectare, 21st day after application
In short: as §2

[8] = tested on: velvetleaf (Abutilon theophrasti medicus); assay: Test Example 3: herbicidal effect by application to upland field (foliage treatment); settings: foliage treatment, 1,000 g active ingredient per 1 hectare, 14th day after application, greenhouse
In short: (§3)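 Greenhouse-grown plants, two weeks old in field soil, were treated by spraying their foliage with a water dilution of wettable powder. Rate: 1,000 g active ingredient in a 1,000 L/ha equivalent volume. Assessment followed at 14 days.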

[9] = tested on: slender amaranth (Amaranthus viridis L.); assay: as above; settings: foliage treatment, 1,000 g active ingredient per 1 hectare, 14th day after application, greenhouse
In short: as §3

[10] = tested on: green foxtail (Setaria viridis (L.) P. Beauv.); assay: as above; settings: foliage treatment, 1,000 g active ingredient per 1 hectare, 14th day after application, greenhouse
In short: as §3

[11] = tested on: barnyardgrass (Echinochloa crus-galli (L.) P. Beauv. var. crus-galli); assay: as above; settings: foliage treatment, 1,000 g active ingredient per 1 hectare, 14th day after application, greenhouse
In short: as §3

Row | SMILES | herbicidal effect, Echinochloa oryzicola Vasing [1] | herbicidal effect, Monochoria vaginalis (Burm. f.) C. Presl [2] | herbicidal effect, Scirpus juncoides Roxb. [3] | herbicidal effect (index), Velvetleaf [4] | herbicidal effect (index), Slender Amaranth [5] | herbicidal effect (index), Green Foxtail [6] | herbicidal effect (index), Barnyardgrass [7] | herbicidal effect, Velvetleaf [8] | herbicidal effect, Slender Amaranth [9] | herbicidal effect, Green Foxtail [10] | herbicidal effect, Barnyardgrass [11]
1 | O=C1CCCC(O)=C1C(=O)c1ccc(C(F)(F)F)n(N2CCCC2)c1=O [I-177] | 5 (90% or more of herbicidal effect and crop phytotoxicity) | 5 (90% or more of herbicidal effect and crop phytotoxicity) | 5 (90% or more of herbicidal effect and crop phytotoxicity) | 5 (90% or more of herbicidal effect and crop phytotoxicity) | 5 (90% or more of herbicidal effect and crop phytotoxicity) | 5 (90% or more of herbicidal effect and crop phytotoxicity) | 5 (90% or more of herbicidal effect and crop phytotoxicity) | 5 (90% or more of herbicidal effect and crop phytotoxicity) | 5 (90% or more of herbicidal effect and crop phytotoxicity) | 4 (70 to less than 90% of herbicidal effect and crop phytotoxicity) | 5 (90% or more of herbicidal effect and crop phytotoxicity)
2 | O=C1CCCC(O)=C1C(=O)c1ccc(C(F)(F)F)n(N2CCOCC2)c1=O [I-178] | 5 (90% or more of herbicidal effect and crop phytotoxicity) | 5 (90% or more of herbicidal effect and crop phytotoxicity) | 5 (90% or more of herbicidal effect and crop phytotoxicity) | 5 (90% or more of herbicidal effect and crop phytotoxicity) | 5 (90% or more of herbicidal effect and crop phytotoxicity) | 5 (90% or more of herbicidal effect and crop phytotoxicity) | 5 (90% or more of herbicidal effect and crop phytotoxicity) | 5 (90% or more of herbicidal effect and crop phytotoxicity) | 5 (90% or more of herbicidal effect and crop phytotoxicity) | 5 (90% or more of herbicidal effect and crop phytotoxicity) | 5 (90% or more of herbicidal effect and crop phytotoxicity)
3 | CN(C)C=Nn1c(C(F)(F)F)ccc(C(=O)C2=C(O)CCCC2=O)c1=O [I-186] | 5 (90% or more of herbicidal effect and crop phytotoxicity) | 5 (90% or more of herbicidal effect and crop phytotoxicity) | 5 (90% or more of herbicidal effect and crop phytotoxicity) | 5 (90% or more of herbicidal effect and crop phytotoxicity) | 5 (90% or more of herbicidal effect and crop phytotoxicity) | 5 (90% or more of herbicidal effect and crop phytotoxicity) | 5 (90% or more of herbicidal effect and crop phytotoxicity) | 5 (90% or more of herbicidal effect and crop phytotoxicity) | 5 (90% or more of herbicidal effect and crop phytotoxicity) | 5 (90% or more of herbicidal effect and crop phytotoxicity) | 5 (90% or more of herbicidal effect and crop phytotoxicity)
4 | COC(=O)N(C)n1c(C(F)(F)F)ccc(C(=O)C2=C(O)CCCC2=O)c1=O [I-190] | 5 (90% or more of herbicidal effect and crop phytotoxicity) | 5 (90% or more of herbicidal effect and crop phytotoxicity) | 5 (90% or more of herbicidal effect and crop phytotoxicity) | 5 (90% or more of herbicidal effect and crop phytotoxicity) | 5 (90% or more of herbicidal effect and crop phytotoxicity) | 4 (70 to less than 90% of herbicidal effect and crop phytotoxicity) | 5 (90% or more of herbicidal effect and crop phytotoxicity) | 5 (90% or more of herbicidal effect and crop phytotoxicity) | 5 (90% or more of herbicidal effect and crop phytotoxicity) | 5 (90% or more of herbicidal effect and crop phytotoxicity) | 5 (90% or more of herbicidal effect and crop phytotoxicity)
5 | CCN(C(=O)OC)n1c(C(F)(F)F)ccc(C(=O)C2=C(O)CCCC2=O)c1=O [I-191] | 5 (90% or more of herbicidal effect and crop phytotoxicity) | 5 (90% or more of herbicidal effect and crop phytotoxicity) | 5 (90% or more of herbicidal effect and crop phytotoxicity) | 5 (90% or more of herbicidal effect and crop phytotoxicity) | 5 (90% or more of herbicidal effect and crop phytotoxicity) | 5 (90% or more of herbicidal effect and crop phytotoxicity) | 5 (90% or more of herbicidal effect and crop phytotoxicity) | 5 (90% or more of herbicidal effect and crop phytotoxicity) | 5 (90% or more of herbicidal effect and crop phytotoxicity) | 5 (90% or more of herbicidal effect and crop phytotoxicity) | 5 (90% or more of herbicidal effect and crop phytotoxicity)
6 | CCCn1c(C(F)(F)F)c(C)cc(C(=O)C2=C(O)CCCC2=O)c1=O [I-215] | 5 (90% or more of herbicidal effect and crop phytotoxicity) | 5 (90% or more of herbicidal effect and crop phytotoxicity) | 5 (90% or more of herbicidal effect and crop phytotoxicity) | 5 (90% or more of herbicidal effect and crop phytotoxicity) | 5 (90% or more of herbicidal effect and crop phytotoxicity) | 5 (90% or more of herbicidal effect and crop phytotoxicity) | 5 (90% or more of herbicidal effect and crop phytotoxicity) | 5 (90% or more of herbicidal effect and crop phytotoxicity) | 5 (90% or more of herbicidal effect and crop phytotoxicity) | 5 (90% or more of herbicidal effect and crop phytotoxicity) | 5 (90% or more of herbicidal effect and crop phytotoxicity)
7 | Cn1c(C(F)F)ccc(C(=O)C2=C(O)CCCC2=O)c1=O [I-221] | 5 (90% or more of herbicidal effect and crop phytotoxicity) | 5 (90% or more of herbicidal effect and crop phytotoxicity) | 5 (90% or more of herbicidal effect and crop phytotoxicity) | 5 (90% or more of herbicidal effect and crop phytotoxicity) | 5 (90% or more of herbicidal effect and crop phytotoxicity) | 3 (50 to less than 70% of herbicidal effect and crop phytotoxicity) | 5 (90% or more of herbicidal effect and crop phytotoxicity) | 5 (90% or more of herbicidal effect and crop phytotoxicity) | 5 (90% or more of herbicidal effect and crop phytotoxicity) | 4 (70 to less than 90% of herbicidal effect and crop phytotoxicity) | 5 (90% or more of herbicidal effect and crop phytotoxicity)
8 | O=C1CCCC(O)=C1C(=O)c1ccc(C(F)F)n(-c2ccccc2)c1=O [I-223] | 5 (90% or more of herbicidal effect and crop phytotoxicity) | 5 (90% or more of herbicidal effect and crop phytotoxicity) | 5 (90% or more of herbicidal effect and crop phytotoxicity) | 5 (90% or more of herbicidal effect and crop phytotoxicity) | 5 (90% or more of herbicidal effect and crop phytotoxicity) | 5 (90% or more of herbicidal effect and crop phytotoxicity) | 5 (90% or more of herbicidal effect and crop phytotoxicity) | 5 (90% or more of herbicidal effect and crop phytotoxicity) | 5 (90% or more of herbicidal effect and crop phytotoxicity) | 5 (90% or more of herbicidal effect and crop phytotoxicity) | 5 (90% or more of herbicidal effect and crop phytotoxicity)

From patent publication US8076487B2, “Pyridone derivative and herbicide” (Kumiai Chemical Industry Co., Ltd., priority 2006, dated 2011)
